This is an account of results in ChEMBL document CHEMBL1122438, “2-Phenylpyrazolo[1,5-a]pyrimidin-7-ones. A new class of nonsteroidal antiinflammatory drugs devoid of ulcerogenic activity” (J Med Chem, 1983).

The subject of series [1] is Rattus norvegicus. Nature of the series: Analgesic activity evaluated by measuring % analgesic effect, after oral administration of 3.0 mg/kg in acetic acid writhing test. Format: functional. For orientation: In writhing tests, fewer writhes than in controls are read as antinociception.
Series [2] concerns Rattus norvegicus. Description: Ulcer index at 5 mg/kg concentration. It counts as functional.
For series [3], the species on record is Rattus norvegicus. Nature of the series: Antiinflammatory activity in carrageenan model, activity is expressed as ED50 values. Format: functional.
In series [4] the test system is Mus musculus. Description: Acute toxicity was evaluated as number of mice died (tested = 7) after 72nd hour when 8 mg/kg is administered intraperitoneally. It counts as organism-based. More on the design: dose 8 mg/kg, route intraperitoneal. Particulars: in vivo, ip.
For series [5], the system named is Mus musculus. Description: Acute toxicity was evaluated as number of mice died (tested = 7) after 72nd hour when 15 mg/kg is administered intraperitoneally. To be noted: in vivo, ip. Set-up: dose 15 mg/kg, route intraperitoneal. It counts as organism-based.
For series [6], the system named is Rattus norvegicus. Nature of the series: Antiinflammatory activity evaluated by measuring % reduction of edema, 3h after oral administration of 5 mg/kg in carrageenan model. It counts as functional.
Series [7] deals with Rattus norvegicus. Nature of the series: Ulcer index at 50 mg/kg concentration. It counts as functional.
The test system of series [8] is Mus musculus. Nature of the series: Acute toxicity was evaluated as number of mice died (tested = 7) after 72nd hour when 75 mg/kg is administered intraperitoneally. Format: organism-based. Set-up: dose 75 mg/kg, route intraperitoneal. To be noted: in vivo, ip.
Series [9] deals with Rattus norvegicus. Description: Percent reduction of edema in rat on 23rd day after oral administration of 3 mg/kg in antiarthritis assay. Format: functional.
The test system of series [10] is Mus musculus. Description: Acute toxicity was evaluated as number of mice died (tested = 7) after 72nd hour when 12 mg/kg is administered intraperitoneally. Format: organism-based. Set-up: dose 12 mg/kg, route intraperitoneal. Particulars: in vivo, ip.
For series [11], the system named is Rattus norvegicus. Description: Median ulcerogenic dose was determined at 30 mg/kg dose. Format: functional.
In series [12] the test system is Rattus norvegicus. Description: (§1) Analgesic activity evaluated by measuring % analgesic effect, after oral administration of 120 mg/kg in acetic acid writhing test. Format: functional.
Series [13] deals with Rattus norvegicus. Description: Analgesic activity evaluated by measuring % analgesic effect, after oral administration of 1.0 mg/kg in acetic acid writhing test. It counts as functional.
The species entered for series [14] is Mus musculus. Nature of the series: (§2) Analgesic activity in acetic acid writhing test, activity is expressed as ED50 values. Format: functional.
Series [15] is described as follows: Therapeutic index was expressed as LD50/ED50 carragreenin model. Particulars: mouse; read-out: TI.
Series [16] relates to Rattus norvegicus. Description: Ulcer index at 30 mg/kg concentration. It counts as functional.
Series [17] can be described thus: Toxic activity is expressed as LD50 values. It counts as toxicity, organism-based. To be noted: mouse, in vivo.
The subject of series [18] is Mus musculus. Description: Percent reduction of edema in mice 3h after oral administration of 3 mg/kg in carrageenan model. It counts as functional.
For series [19], the system named is Rattus norvegicus. Description: Antiinflammatory activity evaluated by measuring % reduction of edema, 3h after oral administration of 1 mg/kg in carrageenan model. Format: functional.
Series [20] deals with Mus musculus. Nature of the series: Acute toxicity was evaluated as number of mice (tested=7) died after 72nd hour when 130 mg/kg is administered intraperitoneally. Format: organism-based. More on the design: dose 130 mg/kg, route intraperitoneal. Particulars: in vivo, ip.
For series [21], the system named is Rattus norvegicus. Description: Percent reduction of edema in rat on 23rd day after oral administration of 30 mg/kg in antiarthritis assay. It counts as functional.
The species entered for series [22] is Rattus norvegicus. Nature of the series: Ulcer index of the compound. Format: functional.
Series [23] concerns Mus musculus. Nature of the series: Analgesic activity evaluated by measuring % analgesic effect, after oral administration of 60 mg/kg in acetic acid writhing test. It counts as functional.
The subject of series [24] is Mus musculus. Description: Percent reduction of edema in mice 3h after oral administration of 30 mg/kg in carrageenan model. It counts as functional.
Series [25] deals with Mus musculus. Nature of the series: Acute toxicity was evaluated as number of mice (tested=7) died after 72nd hour when 115 mg/kg is administered intraperitoneally. To be noted: in vivo, ip. Format: organism-based. More on the design: dose 115 mg/kg, route intraperitoneal.
The subject of series [26] is Mus musculus. Description: […] toxicity was evaluated (number of mice died after 72nd hour when 150 mg/kg is administered intraperitoneally. Format: organism-based. Set-up: dose 150 mg/kg, route intraperitoneal. Particulars: in vivo, ip.
The test system of series [27] is Mus musculus. The series is described as §1. It counts as functional.
The subject of series [28] is Rattus norvegicus. Description: Antiinflammatory activity evaluated by measuring % reduction of edema, 3h after oral administration of 100 mg/kg in carrageenan model. It counts as functional.
Series [29] has as its system Mus musculus. Nature of the series: Acute toxicity was evaluated as number of mice (tested=7) died after 72nd hour when 100 mg/kg is administered intraperitoneally. Format: organism-based. Set-up: dose 100 mg/kg, route intraperitoneal. To be noted: in vivo, ip.
In series [30] the test system is Rattus norvegicus. Description: Antiinflammatory activity evaluated by measuring % reduction of edema, 3h after oral administration of 25 mg/kg in carrageenan model. It counts as functional.
Series [31] relates to Mus musculus. Nature of the series: Acute toxicity was evaluated as number of mice (tested=7) died after 72nd hour when 120 mg/kg is administered intraperitoneally. It counts as organism-based. More on the design: dose 120 mg/kg, route intraperitoneal. Particulars: in vivo, ip.
Series [32] relates to Mus musculus. Description: Analgesic activity evaluated by measuring % analgesic effect, after oral administration of 80 mg/kg in acetic acid writhing test. It counts as functional.
Series [33] relates to Rattus norvegicus. Nature of the series: Antiinflammatory activity evaluated by measuring % reduction of edema, 3h after oral administration of 10 mg/kg in carrageenan model. Format: functional.
Series [34] relates to Rattus norvegicus. Description: Percent reduction of edema in rat on 23rd day after oral administration of 30 mg/kg in antiarthritis assay; i = Inactive. To be noted: at 30 mg/kg. More on the design: dose 30 mg/kg. Format: functional, organism-based.
For series [35], the system named is Rattus norvegicus. Nature of the series: Antiinflammatory activity evaluated by measuring % reduction of edema, 3h after oral administration of 30 mg/kg in carrageenan model. Format: functional.
Series [36] deals with Rattus norvegicus. Nature of the series: Antiinflammatory activity evaluated by measuring % reduction of edema, 3h after oral administration of 20 mg/kg in carrageenan model. Format: functional.
The species named for series [37] is Rattus norvegicus. Described as §2. Format: functional.
Series [38] relates to Rattus norvegicus. Nature of the series: Antiinflammatory activity evaluated by measuring % reduction of edema, 3h after oral administration of 50 mg/kg in carrageenan model. It counts as functional.
Series [39] concerns Mus musculus. Nature of the series: Percent reduction of edema in mice 3h after oral administration of 100 mg/kg in carrageenan model. Format: functional.
In series [40] the test system is Rattus norvegicus. Description: Percent reduction of edema in rat on 23rd day after oral administration of 100 mg/kg in antiarthritis assay. Format: functional.
In series [41] the test system is Mus musculus. Description: Percent reduction of edema in mice 3h after oral administration of 300 mg/kg in carrageenan model. It counts as functional.
Series [42] concerns Rattus norvegicus. Description: Percent reduction of edema in rat on 23rd day after oral administration of 300 mg/kg in antiarthritis assay; i = Inactive. Format: functional, organism-based. More on the design: dose 300 mg/kg. To be noted: at 300 mg/kg.
The test system of series [43] is Rattus norvegicus. Nature of the series: Percent reduction of edema in rat on 23rd day after oral administration of 20 mg/kg in antiarthritis assay. Format: functional.
Series [44] relates to Mus musculus. Description: Percent reduction of edema in mice 3h after oral administration of 20 mg/kg in carrageenan model. It counts as functional.
Series [45] has as its system Rattus norvegicus. Description: Percent reduction of edema in rat on 23rd day after oral administration of 50 mg/kg in antiarthritis assay; i = Inactive. Format: functional, organism-based. More on the design: dose 50 mg/kg. Particulars: at 50 mg/kg.
Series [46] deals with Mus musculus. Nature of the series: Percent reduction of edema in mice 3h after oral administration of 50 mg/kg in carrageenan model. Format: functional.

The source made the active and inactive calls. No cut-off for these calls is given here.

On to `COc1ccc2c(c1)c(CC(=O)O)c(C)n2C(=O)c1ccc(Cl)cc1` [INDOMETHACIN], for which the Analgesic effect amounted to 57% with Rattus norvegicus [1], 28.4% in the series with Rattus norvegicus [12] and 28% in the series on Rattus norvegicus [13]. Also, the UI came to 1.4 in the series on Rattus norvegicus [2], 3.3 in the series with Rattus norvegicus [7] and 2.36 in the series with Rattus norvegicus [16]. Further, the ED50 (commonly the dose that gives a 50% effect, or the effect in half of the subjects) is 1.83 mg/kg in the series filed under Rattus norvegicus [3] and 2.5 mg/kg in the series filed under Mus musculus [14]. In addition, the Acute toxicity is 1 in the series with Mus musculus [4], 3 in the series with Mus musculus [5], 7 in the series with Mus musculus [8] and 2 in the series with Mus musculus [10]. The Reduction with Rattus norvegicus [6] is 69.2%; with Rattus norvegicus [9] it was 39%; with Mus musculus [18], 62.4%; in the series on Rattus norvegicus [19], 36.7%. Moreover, the UD50 in the series on Rattus norvegicus [11] came out at 12.1 mg/kg. The selectivity ratio in series [15] was found to be 10.9. Moreover, the median lethal dose (LD50) (as a rule, the dose at which mortality reaches 50%) in series [17] is 19.9 mg/kg.
Consider `Cn1ccc(=O)n2nc(-c3ccccc3)cc12`, for which the Acute toxicity in the series with Mus musculus [20] is reported as 4; with Mus musculus [25], 1; with Mus musculus [26] it was 6; with Mus musculus [29] it was 0; in the series with Mus musculus [31], 3. The Reduction is reported as 29.8% in the series with Rattus norvegicus [21]; 54% with Mus musculus [24]; 67.5% with Rattus norvegicus [28]; 55.1% in the series on Rattus norvegicus [30]; 34.2% with Rattus norvegicus [33]. The figures for the ED50 in the series listed under Rattus norvegicus [3] and in the series listed under Mus musculus [14] were 24.7 mg/kg and 69.6 mg/kg, respectively. The UI in the series listed under Rattus norvegicus [22] is recorded as 0.5. For the same compound, the Analgesic effect in the series with Mus musculus [23] is recorded as 43%; in the series on Mus musculus [27], 80.7%; with Mus musculus [32], 53.3%. Besides, in series [15], the selectivity ratio is 5.13. In series [17], this compound registered a median lethal dose (LD50) of 127 mg/kg.
For `CCCn1c(=O)ccn2nc(-c3ccccc3)cc12`, the Reduction entry with Rattus norvegicus [34] was “inactive”. This compound showed a Reduction in the series with Mus musculus [24] of 18.9%.
On to `CCCn1ccc(=O)n2nc(-c3ccccc3)cc12`, for which the Reduction in the series on Rattus norvegicus [21] is listed as 33%; in the series with Rattus norvegicus [35] it was 52%; in the series with Rattus norvegicus [36] it was 31.9%; in the series with Mus musculus [24], 52.1%; in the series with Rattus norvegicus [38], 70.8%. Besides, the median effective dose (ED50) in the series filed under Rattus norvegicus [37] was 29.8 mg/kg.
In the case of `CCn1ccc(=O)n2nc(-c3ccccc3)c(Br)c12`, the Reduction entry in the series on Rattus norvegicus [34] was “inactive”. Besides, the Reduction in the series on Mus musculus [24] worked out at 40.5%.
The matching figures for `CCOC(=O)/C=C/n1ccc(=O)n2nc(-c3ccccc3)cc12`: “inactive” and 23.4%.
Turning to `CCn1c(=O)ccn2nc(-c3ccccc3)cc12`, the values for the Reduction with Mus musculus [39] and in the series with Rattus norvegicus [40] were 32.2% and 25.7%, respectively.
Compound `Cc1cn(C)c2cc(-c3ccccc3)nn2c1=O` showed a Reduction in the series with Mus musculus [41] of 68.7%. For the same compound, in the series on Rattus norvegicus [42], the Reduction entry is “inactive”.
For the compound `O=c1ccn(Cc2ccccc2)c2cc(-c3ccccc3)nn12`, the Reduction in the series on Rattus norvegicus [43] is listed as 18.2%; in the series on Mus musculus [44], 5.8%.
As for `CCn1ccc(=O)n2nc(-c3ccc(C)cc3)cc12`, the Reduction entry with Rattus norvegicus [34] was “inactive”. This compound gave a Reduction in the series on Mus musculus [24] of 35.9%.
On to `Cc1cc(=O)n2nc(-c3ccccc3)cc2n1C`, for which the Reduction entry in the series on Rattus norvegicus [45] is “inactive”. Moreover, in the series on Mus musculus [46], the Reduction is given as 56.7%.
